Experimental data from paper PMC7473324, “Histo-blood group antigens as divergent factors of groups A and C rotaviruses circulating in humans and different animal species” (Emerging Microbes & Infections, 2020).

Biological target: T1, GST-VP8* of P[16] murine RVA EMcN (Murine rotavirus EMcN, UniProt Q6WVQ1)
T1 construct: gene VP4; VP8* core aa 46-231, cut from VP4 precursor; N-terminal GST fusion kept; E. coli BL21
Assay: CFG glycan array, GST-VP8* detected with fluorescent anti-GST antibody (RFU)
Format: binding
Details: immobilised glycan

OC[C@H]1O[C@H](O[C@H]2[C@@H](O)[C@@H](CO)O[C@@H](O[C@H]3[C@H](O)[C@@H](O)C(O)O[C@@H]3CO)[C@@H]2O)[C@H](O)[C@@H](O)[C@H]1O (stereo partly shown) [compound 117, Galα1-3Galβ1-4Glc]
CFG glycan array, GST-VP8* detected with fluorescent anti-GST antibody (RFU): Four strains exhibited strongest binding signals to the αGal containing glycans
